Data taken from ChEMBL document CHEMBL1949505, “Total synthesis and structure-activity relationships of new echinocandin-like antifungal cyclolipohexapeptides” (2012).
Bridge positions count the residues as written; N and C are the ends. Square brackets hold non-standard residues; d marks the D form. Peptide text beside a SMILES is read from it. * marks the point of attachment. 2Naphthoyl(6-heptyloxy) = CCCCCCCOc1ccc2cc(C(=O)*)ccc2c1; 2Naphthoyl(6-octyloxy) = CCCCCCCCOc1ccc2cc(C(=O)*)ccc2c1; X2 = CCCCCCCOc1ccc(-c2ccc(-c3ccc(C(=O)*)cc3)cc2)cc1; X1 = CCCOc1ccc(-c2ccc(-c3ccc(C(=O)*)cc3)cc2)cc1; Pro(4S-NH2) = N[C@@H]1CN[C@H](C(=O)O)C1; hTyr = N[C@@H](CCc1ccc(O)cc1)C(=O)O; Orn = NCCC[C@H](N)C(=O)O

Tests used:
Assay type in all cases: functional
[1] = tested on: Pichia kudriavzevii; assay: Antifungal activity against Candida krusei after 24 hrs by serial dilution method
[2] = tested on: Cryptococcus neoformans; assay: Antifungal activity against Cryptococcus neoformans after 72 hrs by serial dilution method
[3] = tested on: Aspergillus fumigatus; assay: Antifungal activity against Aspergillus fumigatus after 7 days by serial dilution method; details: 168 h
[4] = tested on: Candida parapsilosis; assay: Antifungal activity against Candida parapsilosis after 24 hrs by serial dilution method; details: Lodderomyces parapsilosis
[5] = tested on: Candida albicans; assay: Ratio of caspofungin MIC to compound MIC for Candida albicans by serial dilution method
[6] = tested on: Candida tropicalis; assay: Antifungal activity against Candida tropicalis after 24 hrs by serial dilution method
[7] = tested on: Trichophyton rubrum; assay: Antifungal activity against Trichophyton rubrum after 7 days by serial dilution method; details: 168 h
[8] = tested on: Candida albicans; assay: Antifungal activity against Candida albicans after 24 hrs by serial dilution method

Row | MIC80 [1] | MIC80 [2] | MIC80 [3] | MIC80 [4] | MIC80 [6] | MIC80 [7] | MIC80 [8] | SMILES | Ratio [5]
1 | 0.5 µg/mL | 64 µg/mL | 1 µg/mL | 4 µg/mL | 16 µg/mL | 32 µg/mL | 0.125 µg/mL | CCCCCCCOc1ccc2cc(C(=O)N[C@H]3CCCNC(=O)[C@@H]4C[C@H](N)CN4C(=O)[C@H](CCCCN)NC(=O)[C@H](CCc4ccc(O)cc4)NC(=O)[C@@H]4CCCN4C(=O)[C@H]([C@@H](C)O)NC3=O)ccc2c1.Cc1ccc(S(=O)(=O)O)cc1 ({2Naphthoyl(6-heptyloxy)}-[Orn]TP[hTyr]K[Pro(4S-NH2)]; lactam 1-C) | 4
2 | 2 µg/mL | 32 µg/mL | 1 µg/mL | 4 µg/mL | 32 µg/mL | 32 µg/mL | 1 µg/mL | CCCCCCCCOc1ccc2cc(C(=O)N[C@H]3CCCNC(=O)[C@@H]4C[C@H](N)CN4C(=O)[C@H](CCCCN)NC(=O)[C@H](CCc4ccc(O)cc4)NC(=O)[C@@H]4CCCN4C(=O)[C@H](C(C)C)NC3=O)ccc2c1.Cc1ccc(S(=O)(=O)O)cc1 ({2Naphthoyl(6-octyloxy)}-[Orn]VP[hTyr]K[Pro(4S-NH2)]; lactam 1-C) | –
3 | 2 µg/mL | 32 µg/mL | 1 µg/mL | 4 µg/mL | 16 µg/mL | 16 µg/mL | 1 µg/mL | CCCCCCCOc1ccc(-c2ccc(-c3ccc(C(=O)N[C@H]4CCCNC(=O)[C@@H]5C[C@H](N)CN5C(=O)[C@H](CCCCN)NC(=O)[C@H](CCc5ccc(O)cc5)NC(=O)[C@@H]5CCCN5C(=O)[C@H](C(C)C)NC4=O)cc3)cc2)cc1.Cc1ccc(S(=O)(=O)O)cc1 (X2-[Orn]VP[hTyr]K[Pro(4S-NH2)]; lactam 1-C) | –
4 | 1 µg/mL | 32 µg/mL | 1 µg/mL | 4 µg/mL | 4 µg/mL | 32 µg/mL | 0.5 µg/mL | CCCCCCCCOc1ccc2cc(C(=O)N[C@H]3CCCNC(=O)[C@@H]4C[C@H](N)CN4C(=O)[C@H](CCCN)NC(=O)[C@H](CCc4ccc(O)cc4)NC(=O)[C@@H]4CCCN4C(=O)[C@H]([C@@H](C)O)NC3=O)ccc2c1.Cc1ccc(S(=O)(=O)O)cc1 ({2Naphthoyl(6-octyloxy)}-[Orn]TP[hTyr][Orn][Pro(4S-NH2)]; lactam 1-C) | –
5 | 1 µg/mL | 16 µg/mL | 1 µg/mL | 2 µg/mL | 8 µg/mL | 16 µg/mL | 0.25 µg/mL | CCCCCCCOc1ccc(-c2ccc(-c3ccc(C(=O)N[C@H]4CCCNC(=O)[C@@H]5C[C@H](N)CN5C(=O)[C@H](CCCCN)NC(=O)[C@H](CCc5ccc(O)cc5)NC(=O)[C@@H]5CCCN5C(=O)[C@H]([C@@H](C)O)NC4=O)cc3)cc2)cc1.Cc1ccc(S(=O)(=O)O)cc1 (X2-[Orn]TP[hTyr]K[Pro(4S-NH2)]; lactam 1-C) | –

The remaining lines, values behind:

Row | SMILES | MIC80 [1] | MIC80 [2] | MIC80 [3] | MIC80 [4] | MIC80 [6] | MIC80 [7] | MIC80 [8] | Ratio [5]
6 | CCCCCCCOc1ccc(-c2ccc(-c3ccc(C(=O)N[C@H]4CCCNC(=O)[C@@H]5C[C@H](N)CN5C(=O)[C@H](CCCN)NC(=O)[C@H](CCc5ccc(O)cc5)NC(=O)[C@@H]5CCCN5C(=O)[C@H](C(C)C)NC4=O)cc3)cc2)cc1.Cc1ccc(S(=O)(=O)O)cc1 (X2-[Orn]VP[hTyr][Orn][Pro(4S-NH2)]; lactam 1-C) | 2 µg/mL | 64 µg/mL | 1 µg/mL | 8 µg/mL | 16 µg/mL | 32 µg/mL | 1 µg/mL | –
7 | CCCOc1ccc(-c2ccc(-c3ccc(C(=O)N[C@H]4CCCNC(=O)[C@@H]5C[C@H](N)CN5C(=O)[C@H](CCCN)NC(=O)[C@H](CCc5ccc(O)cc5)NC(=O)[C@@H]5CCCN5C(=O)[C@H]([C@@H](C)O)NC4=O)cc3)cc2)cc1.Cc1ccc(S(=O)(=O)O)cc1 (X1-[Orn]TP[hTyr][Orn][Pro(4S-NH2)]; lactam 1-C) | 0.5 µg/mL | 32 µg/mL | 2 µg/mL | 4 µg/mL | 8 µg/mL | 64 µg/mL | 0.125 µg/mL | 4
8 | CCCCCCCCOc1ccc2cc(C(=O)N[C@H]3CCCNC(=O)[C@@H]4C[C@H](N)CN4C(=O)[C@H]([C@H](C)O)NC(=O)[C@H](CCc4ccc(O)cc4)NC(=O)[C@@H]4C[C@H](N)CN4C(=O)[C@H]([C@@H](C)O)NC3=O)ccc2c1.Cc1ccc(S(=O)(=O)O)cc1 | 8 µg/mL | > 64 µg/mL | > 64 µg/mL | 32 µg/mL | 32 µg/mL | > 64 µg/mL | 2 µg/mL | –
